The values below come from patent US10947542B2, “Nucleic acid simultaneously inhibiting expression of AR gene and mTOR gene” (CURIGIN CO., LTD., priority 2017, dated 2021).

One data set deals with DU145 cell line. The data set is described as follows: Cancer cell death by double target siRNA and anticancer agent, MTT cell viability. The data set is classed as cell-based. The method, then: (§1) After incubating the DU145 cell line and the H460 cell line in 6-well plates respectively, we transfected the double target siRNA set 1 (si-AT1) according to the present disclosure thereto. Then, as 48 hours lapsed, the cells were treated with cisplatin 50 uM, etoposide 20 uM or Taxol 1 uM and were incubated for 16 hours. Thereafter, the cells were treated with 5 mg/mL MTT (Promega, Ltd.) and incubated for 4 hours, and then the medium was removed. The cells were treated with 150 μl of solubilization solution and stop solution and then were incubated at 37° C. for 4 hours. Absorbance of the reaction solution was measured at 570 nm and cell viability was calculated using the following equation. Cell viability=(Absorbance of experiment group at 570 nm/Absorbance of control at […])×100(%) [Equation 1]

A further data set deals with mTOR gene. The data set is described as follows: mTOR gene expression inhibition by siRNA transfection, RT-PCR/qPCR of mRNA (PC3 and h460 cell lines). Type of data set: cell-based, human. Particulars: 80 pmole siRNA per well, 48 hours after transfection, normalized to GAPDH. The method, then:
(§2) We dispensed PC3 and h460 cell lines into 12-well plates, and incubated the same at 37° C. and 5% CO2 condition in RPMI medium (Hyclone company) with 10% FBS (Hyclone company) until a cell confluent reaches 50%. Thereafter, 3 μl of lipofectamine 3000 (Invitrogen, Carlsbad, Calif., USA) was used to transfect the double target siRNA set 1 prepared in the Example 1 (si-AT 1) to the wells in which the cells were cultured at 80 pmole per well. Thus, AR and mTOR were knocked down simultaneously. In addition, siRNA to AR and siRNA to mTOR were transfected respectively, as listed in the following table 3, as a positive control. At 48 hours after the transfection, cells were crushed, and total RNA was extracted using GeneJET RNA Purification Kit (Invitrogen). While using the extracted total RNA as a template, the same was subjected to reverse transcription into cDNA via RT-PCR reaction. Then, mRNA expression levels of AR and mTOR by each siRNA and by the double target siRNA set 1 (si-AT1) according to the present disclosure was identified via q-PCR reaction. To identify the mRNA expression levels, the mRNA of AR and mTOR in the cell lysates knocked down by PCR conditions of Table 6 was converted to cDNA using the primer set from Table 4 and the reaction mixture from Table 5. […]
In general terms: Real-time PCR tracks product formation cycle by cycle.

The subject of the next data set is H460 cell line. The data set is described as follows: Cancer cell death by double target siRNA and anticancer agent, MTT cell viability. Type of data set: cell-based. The method, then:
as §1

Another data set relates to AR gene. Briefly: AR gene expression inhibition by siRNA transfection, RT-PCR/qPCR of mRNA (PC3 and h460 cell lines). Type of data set: cell-based, human. Particulars: 80 pmole siRNA per well, 48 hours after transfection, normalized to GAPDH. The protocol: as §2
[1] abbreviates: anticancer agent without double target siRNA, cisplatin 50 uM, etoposide 20 uM or Taxol 1 uM, 16 hours.
[2] abbreviates: siRNA transfected, after 48 hours Taxol 1 uM for 16 hours.
Setting [3] is: siRNA transfected, after 48 hours etoposide 20 uM for 16 hours.

For the molecule `N.N.[Cl][Pt][Cl]` [cisplatin, reference compound], the “cancer cell death (cell viability, MTT)” value in the data set on DU145 cell line (setting [1]) is “apoptosis effect was not achieved”.
Consider `COc1cc([C@@H]2c3cc4c(cc3[C@@H](O[C@@H]3O[C@@H]5CO[C@@H](C)O[C@H]5[C@H](O)[C@H]3O)[C@H]3COC(=O)[C@H]23)OCO4)cc(OC)c1O` [etoposide, reference compound], for which, in the data set with DU145 cell line (setting [1]), the “cancer cell death (cell viability, MTT)” value is reported as “a little anticancer activity”.
Same read-out and setting: the value for `CC(=O)O[C@H]1C(=O)[C@@]2(C)[C@H]([C@H](OC(=O)c3ccccc3)[C@]3(O)C[C@H](OC(=O)[C@H](O)[C@@H](NC(=O)c4ccccc4)c4ccccc4)C(C)=C1C3(C)C)[C@]1(OC(C)=O)CO[C@@H]1C[C@@H]2O` [taxol, reference compound] was “a little anticancer activity”.
As to “si-AT1: AR and mTOR double target double strand siRNA, 20mer, SEQ ID NOs: 1 and 2 (chain 1 GCUGCUGCUGCUGCCUGGGG; chain 2 CCCCAUGCAGCUGCAGCAGC; listed as RNA, chemistry not given here)”, the “mRNA expression level of mTOR” value in the data set with mTOR gene (PC3 cells) and with mTOR gene (h460 cell line) was “reduced” throughout. Moreover, the “cancer cell death (cell viability, MTT)” value is “showed apoptosis effect” in the data set on H460 cell line (siRNA alone); “significant anticancer activity” in the data set on H460 cell line (setting [2]); “significant anticancer activity” in the data set on H460 cell line (setting [3]); “caused apoptosis” in the data set on DU145 cell line (siRNA alone ("no treat", no anticancer agent)); “significant improvement in the DU145 cell death” with DU145 cell line (setting [2]); “induced the apoptosis” with DU145 cell line (siRNA transfected, after 48 hours cisplatin 50 uM for 16 hours). For the same molecule, in the data set with DU145 cell line (setting [3]), the “cancer cell death (cell viability, MTT)” value is on record as “significant improvement in the DU145 cell death”. Moreover, the “mRNA expression level of AR” value with AR gene (PC3 cells) and in the data set with AR gene (h460 cell line) was “reduced” in each case.
